In US20160115188A1, “NOVEL alpha-GALACTOSYL CERAMIDE ANALOGS AND USES THEREOF” (Chang Gung Memorial Hospital, Linkou, priority 2014, published 2016):

Key:
[1] = test system: Human iNKT cells; assay: Cytokine production of human iNKT cells co-cultured with compound-loaded dendritic cells (Luminex); assay type: cell-based; conditions: for ratio of IL-4/IFN-γ / ratio of IL-10/IFN-γ: human iNKT cells with compound-loaded dendritic cells, Th2 skewing; for IL-2 level induced / IL-4 level induced / IFN-γ level induced / IL-10 level induced / GM-CSF level induced: dendritic cells loaded with 1 μM compound, cultured with iNKT cells for 3 days, mean±SD
Procedure: The immune response elicited by Compounds 1 and 2a-2i in human NKT cells was evaluated using human dendritic cell (DC).
Method: Human iNKT cells were isolated with anti-TCR Vα24 antibody and cultured for 7 days in the presence of IL-2 (1 μg/mL). The dendritic cells were generated from CD14+ cells, sorted from peripheral blood mononuclear cells (PBMC) by incubating PBMC for 7 days with GM-CSF (50 ng/mL) and IL-4 (50 ng/mL). Dendritic cells were loaded with the following: 1 μM of Compound 1 or 1 μM of Compounds 2a-2i, and cultured with iNKT cells for 3 days. The culture supernatants were collected and analyzed for various cytokines production by Luminex. Data were presented as mean±SD and analyzed by one-way ANOVA.
The ratios of IL-4/IFN-γ and IL-10/IFN-γ were used evaluate if the immune response elicited by Compounds 1 and 2a-2i was skewed toward Th2 mediated response.

[2] = Solubility noted during characterisation; assay type: physicochemical; conditions: room temperature; prevented optical rotation measurement
[3] = test system: mNK1.2 cells; assay: Induction of IL-2 in mNK1.2 cells cultured with compound-loaded A20-CD1d cells (ELISA); assay type: cell-based, murine; conditions: cultured with mNK1.2 cells, supernatant after 72 hours
Procedure: The immune response elicited by Compounds 1 and 2a-2i was assessed by the induction of IL-2 in mNK1.2 cells. Compound 1 is illustrated by the following formula: […]
Method: A20-CD 1d cells were loaded with Compound 1 (α-GalCer) and Compounds 2a-2i, and cultured with mNK1.2 cells. Supernatants were collected after 72 hours to determine the production of IL-2 by ELISA.

[4] = in words, relative to Compound 1

SMILES	ratio of IL-4/IFN-γ [1]	ratio of IL-10/IFN-γ [1]	IL-2 level induced [1] [pg/mL]	IL-4 level induced [1] [pg/mL]	melting point [°C]	IFN-γ level induced [1] [pg/mL]	further results
CCCCCCCCCCCCCCCCCCCCCCCCCC(=O)N[C@@H](CO[C@H]1O[C@H](COCCCCCCCCCCCCCCCCCCCC)[C@H](O)[C@H](O)[C@H]1O)[C@H](O)[C@H](O)CCCCCCCCCCCCCC [Compound 2f, (2S,3S,4R)-1-O-(6-O-eicosanyl-α-D-galactopyranosyl)-D-ribo-2-hexacosanoylamino-1,3,4-oc-tadecantriol]	0.093±0.041	0.69±0.24	–	–	–	–	–
CCCCCCCCCCCCCCCCCCCCCCCCCC(=O)N[C@@H](CO[C@H]1O[C@H](COCCCCCCCCCCCC)[C@H](O)[C@H](O)[C@H]1O)[C@H](O)[C@H](O)CCCCCCCCCCCCCC [Compound 2d, (2S,3S,4R)-1-O-(6-O-dodecyl-α-D-galactopyranosyl)-D-ribo-2-hexacosanoylamino-1,3,4-oct-adecantriol]	0.331±0.074	0.83±0.1	33.8 ± 0.2	191.5 ± 35.3	–	–	–
CCCCCCCCCCCCCCCCCCCCCCCCCC(=O)N[C@@H](CO[C@H]1OC(CN)[C@H](O)C(O)C1O)[C@H](O)[C@H](O)CCCCCCCCCCCCCC (stereo partly drawn) [Compound 2i, (2S,3S,4R)-1-O-(6-amine-α-D-galactopyranosyl)-D-ribo-2-hexacosanoylamino-1,3,4-octadecantriol]	–	–	–	–	187 to 188	2687 ± 89.4	solubility [2]: poor solubility; IL-10 level induced [1]: 2001 ± 46.8 pg/mL; level of IFN-γ compared to Compound 1 [1, 4]: comparable level; level of IL-4 compared to Compound 1 [1, 4]: lower level; ratio of IL-4/IFN-γ compared to Compound 1 [1, 4]: lower ratio
CCCCCCCCCCCCCCCCCCCCCCCCCC(=O)N[C@@H](CO[C@H]1O[C@H](COC)[C@H](O)[C@H](O)[C@H]1O)[C@H](O)[C@H](O)CCCCCCCCCCCCCC [Compound 2b, (2S,3S,4R)-1-O-(6-O-methyl-α-D-galactopyranosyl)-D-ribo-2-hexacosanoylamino-1,3,4-octa-decantriol]	–	–	–	–	–	2286 ± 344.3	IL-2 level induced [3]: 13.3 ± 1.3 ng/mL; levels of cytokines induced compared to Compound 1 [1, 4]: similar
CCCCCCCCCCCCCCCCCCCCCCCCCC(=O)N[C@@H](CO[C@H]1O[C@H](COCCCCCCCCCCCCC)[C@H](O)[C@H](O)[C@H]1O)[C@H](O)[C@H](O)CCCCCCCCCCCCCC [Compound 2e, (2S,3S,4R)-1-O-(6-O-tridecyl-α-D-galactopyranosyl)-D-ribo-2-hexacosanoylamino-1,3,4-oct-adecantriol]	0.246±0.053	0.73±0.03	32.5 ± 1.7	140.4 ± 6.1	–	–	–
CCCCCCCCCCCCCCCCCCCCCCCCCC(=O)N[C@@H](CO[C@H]1OC(COS(=O)(=O)[O-])[C@H](O)C(O)C1O)[C@H](O)[C@H](O)CCCCCCCCCCCCCC.[Na+] (stereo partly drawn) [Compound 2h, (2S,3S,4R)-1-O-(6-O-sulfo-α-D-galactopyranosyl)-D-ribo-2-hexacosanoylamino-1,3,4-octadecantriol, sodium salt]	–	–	60.3 ± 24.4	113.9 ± 28.4	–	2739 ± 14.52	GM-CSF level induced [1]: 2024 ± 108.4 pg/mL
CCCCCCCCCCCCCCCCCCCCCCCCCC(=O)N[C@@H](CO[C@H]1O[C@H](COCCCCCC)[C@H](O)[C@H](O)[C@H]1O)[C@H](O)[C@H](O)CCCCCCCCCCCCCC [Compound 2c, (2S,3S,4R)-1-O-(6-O-hexyl-α-D-galactopyranosyl)-D-ribo-2-hexacosanoylamino-1,3,4-octa-decantriol]	0.044±0.011	0.91±0.26	–	–	–	–	–
CCCCCCCCCCCCCCCCCCCCCCCCCC(=O)N(C)[C@@H](CO[C@H]1OC(COC)[C@H](O)[C@H](O)C1O)[C@H](O)[C@H](O)CCCCCCCCCCCCCC (stereo partly drawn) [Compound 2a, (2S,3S,4R)-1-O-(6-O-methyl-α-D-galactopyranosyl)-D-ribo-2-N-methyl-hexacosanoylamino-1,3,4-octadecantriol]	0.032±0.0009	0.63±0.07	–	–	64 to 66	–	–
CCCCCCCCCCCCCCCCCCCCCCCC(=O)N[C@@H](COC1OC(CO)C(O)C(O)C1O)[C@H](O)[C@H](O)CCCCC (some centres unmarked) [OCH, reference compound]	0.25	0.26	–	–	–	–	–
CCCCCCCCCCCCCCCCCCCCCCCCCC(=O)N[C@@H](CO[C@H]1OC(COP(=O)(O)O)[C@H](O)C(O)C1O)[C@H](O)[C@H](O)CCCCCCCCCCCCCC (stereo partly drawn) [Compound 2g, (2S,3S,4R)-1-O-(6-O-phospho-α-D-galactopyranosyl)-D-ribo-2-hexacosanoylamino-1,3,4-oc-tadecantriol, phosphoric acid]	–	–	–	–	182	2704 ± 10.3	GM-CSF level induced [1]: 1350 ± 146.2 pg/mL; IL-10 level induced [1]: 2010 ± 325.1 pg/mL
